Results reported in article PMC8642446 (Acta Pharmaceutica Sinica. B, 2021).

Target: T1, ICAT (inhibitor of β-catenin and T-cell factor; β-catenin-interacting protein 1) (Homo sapiens, UniProt Q9NSA3)
T1 sequence (Q9NSA3 1-81): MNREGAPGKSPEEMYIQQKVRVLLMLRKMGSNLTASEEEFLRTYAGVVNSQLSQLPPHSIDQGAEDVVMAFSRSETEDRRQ
Assay: MST with EGFP-ICAT in cell lysate
Type: binding

SMILES: CC1=CC(=O)[C@@H](O)[C@]2(C)[C@H]3[C@@H](O)[C@H](O)[C@]4(C)OC[C@@]35[C@@H](C[C@@H]12)OC(=O)[C@H](O)[C@]54O [BD, Bruceine D]
- Kd: 33.2 µM
